The text below walks through data of PubChem BioAssay (NCI).

Among the test systems are NCI-H460 lung; HCT-15 colon; 786-0 renal; K-562 leukemia; HOP-92 NSCLC; UACC-257 melanoma; MDA-MB-231 breast; U251 CNS; ACHN renal; LOX IMVI melanoma.
Common to all, as to experiment: NCI-60 cell line screen, 48 h

“And” between values parts separate entries of the source, which are not always exact repeats. Identical values can stand only once.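 A five-concentration, 48-hour dose response in 96-well plates underlies each endpoint, interpolated linearly between surrounding concentrations. At the GI50, growth is halved. TGI marks complete inhibition of growth.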 Where only a bound is given, the exact number is not on record here.

In the case of `CCCCOC(=O)c1c(C)[nH]c(/C=C2\N=C(c3ccc[nH]3)C=C2OC)c1C`, the GI50 was 61.3 nM in the test with NCI-H460 lung; 53 nM with HCT-15 colon; 267 nM in the test on 786-0 renal; 155 nM in the test with K-562 leukemia; 163 nM with HOP-92 NSCLC; 488 nM in the test with UACC-257 melanoma. Moreover, the GI50 is 56 nM in the test with MDA-MB-231 breast, 120 nM in the test with U251 CNS, 146 nM with ACHN renal and 29.6 nM in the test on LOX IMVI melanoma. Besides, the TGI is 2000 nM with NCI-H460 lung; 1290 nM with HCT-15 colon; 3090 nM in the test with 786-0 renal; 8610 nM in the test with K-562 leukemia; 637 nM in the test on HOP-92 NSCLC; 3350 nM in the test on UACC-257 melanoma. Also, the TGI in the test on MDA-MB-231 breast turned out to be 764 nM; in the test with U251 CNS it was 1760 nM; with ACHN renal, 1300 nM; in the test on LOX IMVI melanoma, 102 nM.
Consider `Cc1cc(-c2cc(OC(=O)c3ccccc3)ccc2Cl)cc2nnc(Nc3ccc(OCCN4CCCC4)cc3)nc12`, for which the GI50 was 1720 nM in the test with NCI-H460 lung; 197 nM in the test on HCT-15 colon; 1890 nM with 786-0 renal; 47.2 nM in the test with K-562 leukemia; 303 nM in the test with HOP-92 NSCLC; 1620 nM with UACC-257 melanoma. Moreover, the GI50 was 1050 nM with MDA-MB-231 breast, 1650 nM in the test on U251 CNS, 1350 nM in the test with ACHN renal and 1450 nM in the test with LOX IMVI melanoma. In addition, the TGI was 3300 nM with NCI-H460 lung; 393 nM in the test on HCT-15 colon; 3500 nM in the test on 786-0 renal; 324 nM with K-562 leukemia; 1690 nM with HOP-92 NSCLC; 3140 nM with UACC-257 melanoma. Moreover, the TGI in the test on MDA-MB-231 breast stood at 2310 nM; in the test with U251 CNS, 3160 nM; with ACHN renal, 2630 nM; with LOX IMVI melanoma it was 2950 nM.
Consider `CC(C)C1=CC2=C(C(=O)C1=O)C13CCCC(C)(C)C1CC2OC3=O` (configuration not stated), for which the TGI was 71900 nM in the test with NCI-H460 lung; 30700 nM in the test with HCT-15 colon; 31900 nM in the test with 786-0 renal; 19700 nM in the test on K-562 leukemia; 37300 nM with HOP-92 NSCLC; 71000 nM with UACC-257 melanoma. For the same compound, the TGI in the test on MDA-MB-231 breast was found to be 42600 nM; in the test with U251 CNS, 49700 nM; in the test on ACHN renal, 38600 nM; with LOX IMVI melanoma it was 39700 nM.
As to `CC(=O)ON=C1C=CC(=C(C#N)c2ccccc2)C=C1`, the GI50 in the test on NCI-H460 lung is 1510 nM; with HCT-15 colon, 970 nM; in the test on 786-0 renal, 1190 nM; in the test on K-562 leukemia, 556 nM; with HOP-92 NSCLC it was 1670 nM; in the test with UACC-257 melanoma it was 2320 nM. For the same compound, the GI50 with MDA-MB-231 breast is 2630 nM; in the test on U251 CNS, 622 nM; in the test with ACHN renal it was 772 nM; in the test with LOX IMVI melanoma, 393 nM. In addition, the TGI was 14200 nM in the test on HCT-15 colon; 14100 nM with 786-0 renal; over 45000 nM in the test with K-562 leukemia; 6990 nM in the test on HOP-92 NSCLC; 18300 nM with UACC-257 melanoma; over 28500 nM with MDA-MB-231 breast. Further, the TGI was 10500 nM in the test on U251 CNS, 14200 nM in the test with ACHN renal and 5580 nM in the test with LOX IMVI melanoma.
Turning to `CC[C@@]1(O)C(=O)OCc2c1cc1n(c2=O)Cc2c-1nc1cc(F)c(C)c3c1c2[C@@H](NC(=O)CO)CC3`, the GI50 in the test on NCI-H460 lung is under 10 nM; in the test with HCT-15 colon it was 247 nM; with 786-0 renal, under 10 nM; in the test on K-562 leukemia, 19.3 nM; in the test on HOP-92 NSCLC it was under 12.5 nM; in the test with UACC-257 melanoma it was 47 nM. Also, the GI50 in the test on MDA-MB-231 breast was 511 nM; in the test with U251 CNS it was under 10 nM; in the test on ACHN renal it was under 10 nM; in the test on LOX IMVI melanoma, under 10 nM. The TGI is 1270 nM in the test on NCI-H460 lung; over 100000 nM in the test on HCT-15 colon; 439 nM with 786-0 renal; over 100000 nM with K-562 leukemia; 355 nM with HOP-92 NSCLC; 1020 nM in the test on UACC-257 melanoma. Further, the TGI with MDA-MB-231 breast is over 100000 nM; in the test with U251 CNS, 1760 nM; in the test on ACHN renal, 131 nM; in the test with LOX IMVI melanoma, 31.4 nM.
For the compound `CC1[C@@H]2CC=C3[C@H]4CCC5Cc6nc7c(nc6C[C@@]5(C)C4CC(=O)[C@]32CO[C@]12OC(C)(C)CC2O)CC1CC[C@@H]2C3=C[C@H]4O[C@@]5(O[C@@](C)(CO)C[C@@H]5O)C(C)[C@@]4(O)[C@]3(C)[C@@H](O)CC2[C@]1(C)C7` (some centres not stated), the GI50 with NCI-H460 lung is 0.268 nM and 0.365 nM; in the test on HCT-15 colon, 4.1 nM and 7.63 nM; in the test on 786-0 renal, 0.168 nM; with K-562 leukemia, 0.615 nM and 1.11 nM; in the test with HOP-92 NSCLC, 0.668 nM and 0.454 nM; in the test with UACC-257 melanoma, 4.26 nM. Further, the GI50 in the test on MDA-MB-231 breast was 1.21 nM; in the test with U251 CNS, 0.183 nM and 0.365 nM; with ACHN renal it was 8.05 nM; with LOX IMVI melanoma, 0.361 nM and 0.576 nM. The TGI is 13 nM and 116 nM with NCI-H460 lung; 102 nM and 129 nM in the test with HCT-15 colon; 30.3 nM in the test on 786-0 renal; 27.8 nM and 31.1 nM with K-562 leukemia; 21.1 nM in the test on UACC-257 melanoma; 284 nM with MDA-MB-231 breast. For the same compound, the TGI in the test on U251 CNS is 129 nM and 46.1 nM; with ACHN renal, 846 nM.
